pEC50: −log10 of the molar value. Entries after “also recorded” stand apart in the source; their conditions may differ.
Assays:
[1] = tested on: human whole blood eosinophil; assay: Human whole blood eosinophil actin-polymerization response; format: cell-based; conditions: read-out: Actin-polymer EC50
Excerpt: Yet another secondary screening assay is an actin polymerization assay. Another biological effect of the interaction of PGD2 with CRTH2 is actin polymerization. Thus, an actin polymerization assay may be used as a secondary screen to characterize the activity of a compound isolated in the primary screening assays of the invention. In one embodiment, actin polymerization may be assayed using an actin-specific fluorescent label, nitrobenzoxadiazole (NBD)-phallacidin, which binds polymerized actin fiber. In a specific embodiment, the assay may be performed as follows: cell preparations are resuspended at 5-10×10^6 cells/ml in RPMI 1640 plus 10 mM HEPES, 100/10 Pen/Strep, and 0.5% FCS. The cell suspension is aliquoted (100 μL per well) into a 96-well U-bottom polypropylene microtiter plate. 50 ul of the appropriate stimulus (PGD2 or test compound, or both PGD2 and test compound) is added using an 8-channel pipette followed exactly 25 seconds later by 50 ul of a stopping solution which contains lysophosphotidylcholine (0.5 mg/ml), Hank's balanced salt solution (100 ul 10×), 16% formaldehyde (800 ul), and 6.6 uM NBD-phallacidin in MEOH (100 ul). The plate is allowed to sit at room temperature for 15 minutes. The plate is then centrifuged at 1000 rpm for 5 minutes, the supernatants flicked off and the cell pellets resuspended in 250 ul PBS plus 2%FCS and 0.2% sodium azide. Each sample is then read on a FACS Caliber instrument. Cells are gated using the forward scatter/side scatter data in the lymphocyte area. Responses are measured by the change in median FL-1 fluorescence between vehicle treated cells and stimulus treated cells. Test compounds can be assayed in the presence and absence of PGD2, and compared to a sample containing PGD2 alone. A compound that reduces PGD2-induced actin polymerization of CRTH2 cells is identified as a candidated CRTH2 antagonist.

guinea pig eyes = conditions: topical, cited from earlier work; for microvascular leakage followed by conjunctival inflammation: 6-hour post challenge
CRTH2 = biological target: T1, CRTH2 (Homo sapiens, UniProt Q9Y5Y4); assay: [Ca2+]i mobilization assay in 300-19 cells expressing CRTH2; format: cell-based; conditions: CRTH2 stable cell line (300-19 transfectants)
T1 construct: prolactin (prolac) signal peptide (N); expressed in transfected cells; host or cells: 300-19 cells (transformed murine pre-B lymphocytes)
T1 sequence (Q9Y5Y4 1-395): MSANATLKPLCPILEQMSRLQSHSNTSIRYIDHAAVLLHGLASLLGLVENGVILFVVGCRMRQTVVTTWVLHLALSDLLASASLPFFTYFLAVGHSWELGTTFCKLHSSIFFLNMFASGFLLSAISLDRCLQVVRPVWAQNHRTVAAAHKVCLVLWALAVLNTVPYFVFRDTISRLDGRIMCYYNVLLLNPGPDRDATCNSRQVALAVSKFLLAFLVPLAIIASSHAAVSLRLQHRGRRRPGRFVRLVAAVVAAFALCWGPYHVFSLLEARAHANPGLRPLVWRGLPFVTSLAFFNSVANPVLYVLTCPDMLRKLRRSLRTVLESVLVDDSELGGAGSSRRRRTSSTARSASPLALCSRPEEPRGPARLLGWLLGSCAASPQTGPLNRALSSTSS
Procedure: The ratio of fluorescence produced by the calcium-bound dye to that produce by the unbound dye is used to estimate the intracellular calcium concentration. In one embodiment, for example, the following method can be used. Cells that express CRTH2 are collected, and resuspended in fresh media at ˜2×10^5/ml the day before performing the calcium flux assay. Cells are incubated at 37° C. for not longer than 20-30 minutes, and then spun down and resuspended in 50 ml fresh PTI buffer (Hank's Buffer, pH 7.2-7.4; 10 mM Hepes; 1.6 mM CaCl2) containing Indo-1 AM, pre-warmed to 37° C., at a concentration of 10 million per ml. Cells are excited, and fluorescence is measured using a fluorimeter (Photon Technology Corporation, International). After the readout has stabilized, the time axis is reset, and PGD2 is added at a specific time point (e.g., 20 seconds). After response, the following reagents are added to the cuvette, to release and chelate total calcium, in the following order: 20 μl of 18% Triton X-100, 20 μl of 3M Tris, pH 8.5, and 20 μl of 0.5 M EGTA, pH 8.5. The experiment is repeated in the presence and the absence of a test compound.
Using 300-19 cells (transformed pre-B lymphocytes) expressing CRTH2, a number of mast cell and non-mast cell-derived mediators were screened in a [Ca^2+]i mobilization assay. […]

[2] = tested on: human activated T-lymphocytes; assay: Chemotaxis of human T lymphocytes (Boyden chamber); format: cell-based; conditions: anti-CD3 or anti-CD3 and anti-CD28 stimulated T cells
Procedure: The chemotactic response of human T lymphocytes to PGD2, murine MDC and murine mSDF was also assayed. Chemotaxis was determined using a 48-well Boyden chamber (Neuroprobe, Cabin John, Md.), and 3.0 μm polycarbonate filters. Cells were resuspended (3-3.5×10^6 cells/ml) in RPMI 1640 supplemented with 10 mM HEPES and 1 mg/ml bovine serum albumin (Sigma, St. Louis, Mo.), and placed into the upper wells of the chamber. The compound to be tested was placed in the lower wells. The chambers were incubated for 90-120 minutes at 37° C. in a humidified CO2 incubator. At the end of the incubation period, the number of migrating cells on the filter (expressed per high power field) were enumerated microscopically. […] In FIG. 4, the chemotactic response of human basophils to PGD2 and C5a is shown.

[3] = inhaled, asthmatics; cited from earlier work

pEC50 [1] | Structure (SMILES) | microvascular leakage followed by conjunctival inflammation (guinea pig eyes) | ocular hypotension (guinea pig eyes) | pEC50 (CRTH2) | chemotactic response of human T lymphocytes [2] | bronchoconstriction potency relative to PGF2α [3] [×] | bronchoconstriction potency relative to histamine [3] [×]
< 6.00 | O=C(O)CCCCCCC1C(=O)NC(=O)N1CCC(O)C1CCCCC1 (stereo not drawn) [BW-245C] | BW-245C-insensitive | mimicked by BW-245C | – | – | – | –
< 3.52 | CCCCC[C@H](O)/C=C/[C@H]1[C@H](O)CC(=O)[C@@H]1C/C=C\CCCC(=O)O [PGE2] | – | – | – | – | – | –
5.72 | CCCCC[C@H](O)/C=C/[C@@H]1[C@@H](C/C=C\CCCC(=O)O)[C@@H](O)C[C@H]1O [PGF2α] | – | – | – | – | – | –

Structure (SMILES) | pEC50 [1] | microvascular leakage followed by conjunctival inflammation (guinea pig eyes) | ocular hypotension (guinea pig eyes) | pEC50 (CRTH2) | chemotactic response of human T lymphocytes [2] | bronchoconstriction potency relative to PGF2α [3] [×] | bronchoconstriction potency relative to histamine [3] [×]
CCCCC[C@H](O)/C=C/[C@H]1C(=O)C[C@H](O)[C@@H]1C/C=C\CCCC(=O)O [PGD2, prostaglandin D2] | 8.40 | microvascular leakage followed by conjunctival inflammation | elicits ocular hypotension | 7.82 | respond specifically to PGD2; also recorded: responsive to PGD2 | 3.5 | 30
